Measured values from PubChem BioAssay AID179 (DTP/NCI, 2004).
“And” between values parts separate entries of the source, which are not always exact repeats. Equal values may be shown once. The source made the active and inactive calls.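 How the source made its calls: active means compounds giving half or more protection of infected cells from virus-caused growth loss, again on retest; inactive means the rest.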 Where a SMILES comes first, the peptide text is derived from it. The star is where a group is joined. Cbz = O=C(OCc1ccccc1)*; Boc = CC(C)(C)OC(=O)*; OBn = c1ccc(CO*)cc1

System: CEM cells HIV-1 protection, formazan growth assay
Assay: NCI AIDS Antiviral Assay
Conditions: for IC50: measured here: growth of uninfected CEM cells
How it was run: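 Screen of anti-HIV-1 activity in human CEM cells using a formazan-based growth measurement at five drug concentrations. Hits with 50% or greater protection were repeated, and confirmation required reproducible complete protection.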

| SMILES | outcome | EC50 [µM] | IC50 |
| --- | --- | --- | --- |
| O=C(CCC(=O)Nc1cccc(C(F)(F)F)c1)CC(=O)c1ccc2ccccc2c1 | inactive |  |  |
| C/C(=N\NC(=S)NC(C)(C)C)c1ccccn1 |  | > 200 | 0.0631 µM |
| CC(C)(CO)CNc1nc(N)nc(Cl)c1/C=N/O |  | > 200 | 5.5 µM |
| CN1c2ccccc2Oc2ccc3ccccc3c21 |  | > 200 | 135 µM |
| BrC12C3C4C5C(C(C43)C13OCCO3)C52 (stereo not given) |  | > 708 | > 708 µM |
| COc1ccc2oc(=N)c(C(=O)NCc3ccccc3)cc2c1 |  | > 200 | 17.8 µM |
| O=c1c2cccnc2nc2ccc3c[nH][nH]c3c12 |  | > 200 | 87.1 µM |
| CC(=O)NC(CCCCNC(=O)OC(C)(C)C)C(=O)O (stereo not given) |  | > 200 | > 200 µM |
| CCOC(=O)N1CCN(C(=O)COc2cc3c(O)c4c(O)c(C)c5c(c24)C(=O)C(C)(O/C=C/C(OC)C(C)C(OC(C)=O)C(C)C(O)C(C)C(O)C(C)/C=C/C=C(\C)C(=O)N3)O5)CC1 (stereo not given) |  | > 200 | 13.5 µM |
| O=C1c2ccccc2[Se](=O)N1c1ccccc1 (stereo not given) |  | 1.17 | 14.1 µM |
| CCCCCCCCCCCCCCCC(=O)OCC1CCCN2CCCCC12 (stereo not given) |  | > 200 | > 200 µM |
| CCOC(=O)c1c(O)cc(=O)[nH]c1N1CCOCC1 |  | > 200 | > 200 µM |
| O=S(=O)(/N=S(/Nc1ccccc1)C(Cl)Cl)c1ccccc1 (stereo not given) |  | > 200 | > 200 µM |
| CCOc1ccc(NC(=O)CCc2nnc(SC)o2)cc1 |  | > 162 | > 162 µM |
| Brc1cnc2n[nH]nc2c1 |  | > 912 | 525 µM |
| COC(=O)CN=C1NC(=S)N(Cc2ccc(OC)cc2)C12CCCC2 |  | > 200 | > 200 µM |
| COc1ccc2c(c1)C1C(CO2)C(c2ccccc2)=NN1c1ccccc1 (stereo not given) |  | > 20.4 | > 20.4 µM |
| COc1nc2ncc([C@@H](O)[C@H](O)CO)nc2c(=O)[nH]1 |  | > 200 | > 200 µM |
| O=C1CCCc2[nH]c(=O)ccc21 | inactive |  |  |
| CC12CCC(=O)N1c1cc([N+](=O)[O-])ccc1N2 (stereo not given) | inactive |  |  |
| C=C(C)C1CCC2=CC(CC3(C)OC3C3=CC(C(=O)OC)=C(C1)O3)OC2=O (stereo not given) |  | > 47.9 | > 47.9 µM |
| CCOP(=O)(OCC)/C(C#N)=C(\C)c1ccco1 |  | > 200 | > 200 µM |

| SMILES | outcome | EC50 [µM] | IC50 |
| --- | --- | --- | --- |
| CC(=O)OCC1OC(n2c(-c3ccccc3)c(N=Nc3ccc(Cl)cc3)c(C)c(C#N)c2=S)C(OC(C)=O)C(OC(C)=O)C1OC(C)=O (stereo not given) |  | > 200 | 24.5 µM and 95.5 µM |
| O=C(NCCCNCCCCNCCCNC(=O)c1cc(-c2ccccc2)nc2ccccc12)c1cc(-c2ccccc2)nc2ccccc12 |  | > 20 | 3.8 µM |
| CC1C(O)O[C@@H]2O[C@@]3(C)CC[C@H]4[C@H](C)CC[C@@H]1[C@@]24O3 (stereo not given in full) |  | > 200 | > 200 µM |
| O=S(=O)(O)CC(O)CSSCC(O)CS(=O)(=O)O (stereo not given) |  | > 200 | > 200 µM |
| Brc1ccc2c(c1)C1=C(CO2)Cc2ccccc2O1 | inactive |  |  |
| c1nc2c([nH]1)CCNC2c1ccc2c(c1)OCO2 (stereo not given) | inactive |  |  |
| CCOC(=O)[C@@]1(C)CC(O)C(=O)N1C (stereo not given in full) | inactive |  |  |
| CSC(=Nc1ccc([N+](=O)[O-])cc1C#N)NC(=O)c1ccccc1 | inactive |  |  |
| CC[N+](C)(C)Cc1ccccc1Br |  | > 200 | 182 µM |
| CCOC(=O)c1nc2ccccc2nc1Oc1cc(OC)c(OC)c(OC)c1 |  | > 100 | > 100 µM |
| O=C1[C@@H]2C(c3ccc(Br)cc3)=NO[C@@H]2C(=O)N1c1ccc(Cc2ccc(N3C(=O)[C@H]4C(c5ccc(Br)cc5)=NO[C@H]4C3=O)cc2)cc1 |  | > 9.55 | > 9.55 µM |
| C[N+](C)(C)CC1CCCc2ccccc2C1=O (stereo not given) | inactive |  |  |
| O=C1[O][Bi]23[O]C(=O)C([O]2)C1[O]3 |  | > 36.3 | > 36.3 µM |
| C[CH2][Sn]([CH2]C)([O]C(=O)c1ccccc1F)[O]C(=O)c1ccccc1F |  | > 29.5 | 17.4 µM |
| O=C(CCC(=O)OCC1OC(O)(CC2OC(CO)C(O)C(O)C2O)C(O)C1O)OCc1ccccc1 (stereo not given) |  | > 200 | > 200 µM |
| CCOc1ncnc2c1ncn2C1OC(CO)CC1F (stereo not given) |  | > 178 | > 178 µM |
| CC(=O)OC[C@]12[C@H](OC(C)=O)[C@H](OC(C)=O)[C@@H]3C(OC(C)=O)[C@@]14OC3(C)COC(=O)c1cccnc1CCC(C)C(=O)OC([C@H](OC(C)=O)[C@@H]2OC(=O)c1ccccc1)[C@]4(C)O (stereo not given in full) |  | > 38.9 | > 38.9 µM |
| CC1=C(C(=O)CC(=O)C(=O)Nc2ccccc2C)Sc2ccccc2N1 |  | > 19.5 | > 19.5 µM |
| C=CCn1c(=S)sc2c(=O)[nH]cnc21 |  | > 1120 | 195 µM |
| C/C(=C1/N=C(c2cc([N+](=O)[O-])ccc2Cl)N(c2ccc(Br)cc2)C1=O)c1cc2ccccc2oc1=O |  | > 24 |  |
| CCCCCCCCCCCC1=C(NCCN)C(=O)C=C(NCCN)C1=O |  | > 2 | > 2 µM |
| O=C1N[C@@H](O)[C@@H]2ON=C(c3ccccc3)[C@H]12 |  | > 1150 | > 1150 µM |

| SMILES | outcome | EC50 [µM] | IC50 |
| --- | --- | --- | --- |
| NC(N)=NS(=O)(=O)c1ccc(NCc2c3ccccc3nc3ccccc23)cc1 |  | > 2 | 0.195 µM |
| O=C(O)c1ccccc1-c1c2cc(Br)c(=O)c(Br)c-2oc2c(Br)c(O)c(Br)cc12 |  | > 200 | 21.9 µM and 35.5 µM |
| Nc1ncnc2c1sc(=S)n2-c1ccccc1 |  | > 52.5 | > 52.5 µM |
| Cc1cn(C2OC(CO[Si](C)(C)C(C)(C)C)/C(=C\C#N)C2O[Si](C)(C)C(C)(C)C)c(=O)[nH]c1=O (stereo not given) |  | > 200 | > 200 µM |
| Cc1cc(NCCCCCCNc2cc(C)nc3cc(N(C)C)ccc23)c2ccc(N(C)C)cc2n1 | inactive |  |  |
| N#CC1(c2ccccc2)CCN(C2(c3ccccc3)CCCCC2)CC1 |  | > 200 | > 200 µM |
| O=c1c(-c2nn[nH]n2)cnc2sc3cc(Cl)ccc3n12 |  | > 200 | 89.1 µM |
| Cc1no[n+]([O-])c1/C=N/NS(=O)(=O)c1ccccc1 |  | > 891 | 407 µM |
| COC(=O)C(CCCCNC(=O)OCc1ccccc1)NC(=O)C(CCC(=O)OCc1ccccc1)NC(=O)OC(C)(C)C (stereo not given) (Boc-Glu(OBn)-Lys(Cbz)-OMe; configuration not given here) |  | > 200 | > 200 µM |
| COc1ccc(/C=C2\N=C(N/N=C\C(O)C(O)C(O)C(O)CO)NC2=O)cc1 (stereo not given) |  | > 200 | 107 µM |
| Cc1cc(S(=O)(=O)Nc2nc(N)nc(N3N=CCC3C)n2)c(SCC(=O)O)cc1Cl (stereo not given) |  | > 200 | > 200 µM |
| Nc1c(-c2nc3ccccc3[nH]2)sc(=S)n1-c1ccc(Cl)cc1 |  | > 14.5 | > 14.5 µM |
| O=S1(=O)N2CN3CN(C2)CN1C3 | inactive |  |  |
| [O-]/N=N\c1on[n+](CCc2ccccc2)c1Cc1c(/N=N/[O-])on[n+]1CCc1ccccc1 | inactive |  |  |
| O=c1cc(CCl)n2cnc3c(ncn3C3OC(CO)C(O)C3O)c2n1 (stereo not given) | inactive |  |  |
| NC(=S)N1N=C2CCCCCC[C@@H]2[C@H]1c1ccccc1 | inactive |  |  |
| CC(=N)C(C#N)C(=S)S (stereo not given) |  | > 537 | 27.5 µM |
| O=C(O)O | inactive |  |  |
| O=C1/C(=C/c2ccc(Br)s2)NC(=S)N1CN1CCOCC1 |  | > 200 | 36.3 µM |
| O=c1cc[nH]c(=O)n1C1CCC(CO)O1 (stereo not given) |  | > 200 | > 200 µM |
| O=S(=O)(c1ccccc1)C(Cl)c1cccc(Cl)c1 (stereo not given) |  | > 63.1 | > 63.1 µM |
